Here are results for 2 compounds from publication PMC10254030, “Photoactivatable Heptamethine-Based Carbonic Anhydrase Inhibitors Leading to New Anti-Antibacterial Agents” (International Journal of Molecular Sciences, 2023).

As usually defined, the MIC is the least concentration at which growth counts as inhibited. What is called Ki is the dissociation constant of the complex between target and ligand, obtained from inhibition or displacement. Low readings indicate tighter binding, high ones weaker binding. As usually defined, the IC50 is the concentration that inhibits the measured activity by half. Read a low IC50 as greater potency.

Series [1] has as its system S. epidermidis. The series can be described thus: MIC and MBC test (NF EN ISO 20776-1), S. epidermidis. The class given is cell-based, Staphylococcus epidermidis. As to conditions: for MIC: Staphylococcus epidermidis, ATCC14990, light or radiation study. As for the experimental part:
(§1) Derivatives 2a–f were dissolved in DMSO and further diluted with distilled water to the required final concentration. The microorganisms (E. faecalis, S. aureus, and S. epidermidis reported in Table 4) were cultured overnight at 35 °C in Mueller Hinton Broth 2, Cation-Adjusted (BD, BD 212322, New York, NY, USA) and adjusted to 0.5 McFarland, according to standardized guidelines NF EN ISO 20776-1 [23]. The minimal inhibitory concentration (MIC) test was performed according to the standardized guidelines NF EN ISO 20776-1 [23]. Once the MIC was obtained, the minimal bactericidal concentration (MBC) test was performed.

In the next series the test system is E. faecalis. The series can be described thus: MIC and MBC test (NF EN ISO 20776-1), E. faecalis. The class given is cell-based, Enterococcus faecalis. The conditions noted are these: for MIC: Enterococcus faecalis; for MBC E. faecalis: bacteriostatic or bactericidal effect, tested up to 8 × MIC. How it is done:
as §1

The next series has as its target T1, E. coli β (Escherichia coli, UniProt P61517).
T1 construct: made in house
The series can be described thus: stopped-flow CO2 hydrase assay, E. coli β. The class given is biochemical. The conditions noted are these: pH 8.4, mean from 3 assays. As for the experimental part: (§2) The CA isoforms belong to different classes of CA enzymes characterized by different kinetic and structural features to assess isoform selectivity.
An Applied Photophysics stopped-flow instrument was used to assay CA-catalyzed CO2 hydration activity. Phenol red (at a concentration of 0.2 mM) was used as an indicator, working at the absorbance maximum of 557 nm, with 20 mM Hepes (pH 7.4 for α-class and pH 8.4 for β- and γ-classes) as a buffer and 20 mM Na2SO4 (to maintain constant the ionic strength), following the initial rates of the CA-catalyzed CO2 hydration reaction for a period of 10–100 s. The CO2 concentrations ranged from 1.7 to 17 mM for the determination of the kinetic parameters and inhibition constants. Enzyme concentrations ranged between 5 and 12 nM. For each inhibitor, at least six traces of the initial 5–10% of the reaction were used to determine the initial velocity. The uncatalyzed rates were determined in the same manner and subtracted from the total observed rates. Stock solutions of the inhibitor (0.1 mM) were prepared in distilled–deionized water, and dilutions up to 0.01 nM were done thereafter with the assay buffer. Inhibitor and enzyme solutions were preincubated together for 15 min at room temperature prior to the assay to allow for the formation of the E–I complex. The inhibition constants were obtained by non-linear least-squares methods using PRISM 3 and the Cheng–Prusoff equation as reported earlier and represent the mean from at least three different determinations. All CA isoforms were recombinant proteins obtained in house, as reported earlier.

The target of a further series is T2, hCA I (Homo sapiens, UniProt P00915).
T2 construct: made in house
T2 sequence (P00915 whole entry): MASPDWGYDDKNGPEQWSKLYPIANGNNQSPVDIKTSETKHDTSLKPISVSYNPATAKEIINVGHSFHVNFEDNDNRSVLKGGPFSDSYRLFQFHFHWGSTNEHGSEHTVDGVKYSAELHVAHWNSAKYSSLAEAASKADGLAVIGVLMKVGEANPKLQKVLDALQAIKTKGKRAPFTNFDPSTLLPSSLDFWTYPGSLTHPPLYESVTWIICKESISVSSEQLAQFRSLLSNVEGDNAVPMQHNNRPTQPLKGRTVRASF
The series can be described thus: stopped-flow CO2 hydrase assay, hCA I. Format: biochemical. As to conditions: for Ki: stopped-flow CO2 hydrase assay, pH 7.4, mean from 3 assays. How it is done:
as §2
(§3) An Applied Photophysics stopped-flow instrument was used to assay CA-catalyzed CO2 hydration activity. […] The uncatalyzed rates were determined in the same manner and subtracted from the total observed rates. Stock solutions of the inhibitor (0.1 mM) were prepared in distilled–deionized water, and dilutions up to 0.01 nM were done thereafter with the assay buffer. Inhibitor and enzyme solutions were preincubated together for 15 min at room temperature prior to the assay to allow for the formation of the E–I complex. The inhibition constants were obtained by non-linear least-squares methods using PRISM 3 and the Cheng–Prusoff equation as reported earlier and represent the mean from at least three different determinations. All CA isoforms were recombinant proteins obtained in house, as reported earlier.

A further series addresses T3, hCA II (Homo sapiens, UniProt P00918).
T3 construct: made in house
As to the kind of experiment: stopped-flow CO2 hydrase assay, hCA II. The class given is biochemical. As to conditions: pH 7.4, mean from 3 assays. How it is done:
as §2, §3

In another series the target is PsCA1 (Pseudomonas aeruginosa, UniProt Q9I730). The series can be described thus: biochemical. As to conditions: stopped-flow CO2 hydrase assay, mean from 3 assays. How it is done: as §2, §3
Sequence of PsCA1 (Q9I730 entry or part of it): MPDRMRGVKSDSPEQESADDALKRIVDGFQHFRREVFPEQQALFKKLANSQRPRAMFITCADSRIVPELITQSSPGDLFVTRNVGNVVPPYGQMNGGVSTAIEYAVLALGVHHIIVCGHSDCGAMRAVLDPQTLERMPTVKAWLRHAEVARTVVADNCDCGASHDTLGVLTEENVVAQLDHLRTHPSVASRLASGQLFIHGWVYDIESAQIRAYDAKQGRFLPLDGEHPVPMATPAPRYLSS
The target in a further series is T4, PsCA3 (Pseudomonas aeruginosa, UniProt Q9HVB9).
T4 construct: made in house
T4 sequence (Q9HVB9 1-215): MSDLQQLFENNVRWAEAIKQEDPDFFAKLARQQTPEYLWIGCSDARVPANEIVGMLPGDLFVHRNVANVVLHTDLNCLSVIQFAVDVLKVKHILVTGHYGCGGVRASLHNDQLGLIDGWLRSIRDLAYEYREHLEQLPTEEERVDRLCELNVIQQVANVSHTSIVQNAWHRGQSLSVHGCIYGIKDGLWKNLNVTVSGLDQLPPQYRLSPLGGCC
The series can be described thus: biochemical. As to conditions: stopped-flow CO2 hydrase assay, mean from 3 assays. How it is done:
as §2, §3

For the next series, the system named is MRC-5 cells. As to the kind of experiment: cytotoxicity, MTT assay. Format: cell-based, human. As to conditions: MRC5; cytotoxicity, human lung fibroblasts, 24 h, MTT. How it is done: The cytotoxicity of the products was tested on MRC-5 cells (lung fibroblasts, ATCC CCL-171) with a seeding concentration of 10,000 cells/well. The products were diluted with a 2% FSC MEM medium (Sigma, M4655, Missouri, MO, USA) to concentrations ranging from 1 to 256 μg/mL and incubated with 80% confluent cells for 24 h. The following day, a 3-[4,5-dimethylthiazol-2-yl]-2,5-diphenyl tetrazolium bromide (MTT) assay was performed, and the optical density of the samples was measured at 540 nm.
(In general: Formazan colour is commonly taken as a measure of viable cells.)

The next series relates to S. aureus. The series can be described thus: MIC and MBC test (NF EN ISO 20776-1), S. aureus. The class given is cell-based, Staphylococcus aureus. As to conditions: for MIC: Staphylococcus aureus, ATCC29213, light or radiation study; for MBC S. aureus: bacteriostatic or bactericidal effect, tested up to 8 × MIC. As for the experimental part: as §1
The next series deals with human red blood cells. The series can be described thus: hemolysis assay. The conditions noted are these: 30 min 37 °C; for hemolysis activity, cytotoxicity to human red blood cells: 0.5–150 µg/mL, compared with 0.01% Tween 20. The class given is cell-based. As for the experimental part:
Blood collected at CHU Nancy was washed three times with PBS, and 10^7 cells/mL were incubated for 30 min at 37 °C with the newly synthesized compounds. The derivatives were previously diluted to the range from 0.5 to 75/150 μg/mL with PBS. As a positive control, cells were resuspended with 0.01% polysorbate 20 (Tween 20). Tween 20 has often been used as a reference compound for cell lysis. Upon incubation, the samples were centrifuged for 5 min at 800× g, and the supernatant was collected for optical density reading at 540 nm.

Series [2] deals with S. epidermidis. The series can be described thus: photoactivity assay, irradiation with 652 nm laser. Format: cell-based, Staphylococcus epidermidis. As to conditions: 652 nm laser 47 min, 30 J/cm2, 2c and 2d at 64 μg/mL, others at MIC. How it is done:
Upon incubation of 1.5–2 h with the products, the samples were irradiated for 47 min with a 652 nm laser (to obtain 1.70 W, 30 J/cm^2). Upon irradiation, the cells were plated and incubated overnight at 35 °C on Mueller Hinton Agar (BD, 225250, New York, NY, USA).

A further series concerns the target E. coli γ (Escherichia coli, UniProt P0A9W9). The class given is biochemical. The conditions noted are these: stopped-flow CO2 hydrase assay, pH 8.4, mean from 3 assays. How it is done: as §2, §3
[3] abbreviates: ATCC 14990, without irradiation.
The mark [4] stands for this setting: bacteriostatic or bactericidal effect, tested up to 8 × MIC.
[5] abbreviates: light or radiation study, clinical isolate, without irradiation, read-out: MIC E. faecalis.
Where [6] appears, read: ATCC 29213, without irradiation.

Read-outs that look alike come from different tables or passages of the source. Some results are limits rather than exact numbers.

Sequence of E. coli γ (P0A9W9 whole entry): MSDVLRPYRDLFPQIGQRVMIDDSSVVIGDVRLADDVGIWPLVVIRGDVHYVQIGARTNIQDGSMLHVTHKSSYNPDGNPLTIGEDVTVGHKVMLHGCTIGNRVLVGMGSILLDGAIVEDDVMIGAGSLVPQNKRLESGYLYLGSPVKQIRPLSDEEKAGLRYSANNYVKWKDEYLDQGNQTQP
T1 sequence (P61517 whole entry): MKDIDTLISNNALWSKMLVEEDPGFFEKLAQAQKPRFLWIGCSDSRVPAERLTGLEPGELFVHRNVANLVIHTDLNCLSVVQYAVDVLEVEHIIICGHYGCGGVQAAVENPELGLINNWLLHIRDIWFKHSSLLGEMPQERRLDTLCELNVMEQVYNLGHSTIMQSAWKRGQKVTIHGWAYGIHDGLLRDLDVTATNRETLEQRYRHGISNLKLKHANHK

As to `CC1(C)C(/C=C/C2=C(NCCc3ccc(S(N)(=O)=O)cc3)C(=C/C=C3\N(CCCCS(=O)(=O)O)c4ccc5ccccc5c4C3(C)C)/CCC2)=[N+](CCCCS(=O)(=O)[O-])c2ccc3ccccc3c21` [Compound 2c], the “MIC S. epidermidis” value against S. epidermidis [1] (setting [3]) is “over 256 µg/mL”. The MIC against S. epidermidis [1] (setting [3]), with E. faecalis (setting [5]) and in the series with S. aureus (setting [6]) was above 256 µg/mL throughout. The MBC S. epidermidis against S. epidermidis [1] (Table 3) and against S. epidermidis [1] (setting [4]) was above 256 µg/mL throughout. Also, the MBC E. faecalis in the series on E. faecalis is above 256 µg/mL. Further, in the series on E. faecalis (clinical isolate, without irradiation), the “MIC E. faecalis” value is given as “over 256 µg/mL”. Moreover, the Ki at E. coli β was found to be 60.2 nM; on hCA I, 529 nM; on hCA II, 91 nM; at PsCA1, 64.8 nM; on PsCA3, 76.8 nM; on E. coli γ, 117 nM. In the series on MRC-5 cells, the IC50 is above 256 µg/mL. Besides, the “MIC S. aureus” value in the series with S. aureus (setting [6]) is given as “over 256 µg/mL”. The compound further gave an MBC S. aureus with S. aureus above 256 µg/mL. Further, the “hemolysis activity, cytotoxicity to human red blood cells” value in the series with human red blood cells was “significant cytotoxicity”. Also, the “Growth Reduction” value in the series with S. epidermidis [2] is given as 1 log reduction.

In the case of `CCCN1C(=CC=C2CCCC(C=CC3=[N+](CCC)c4ccccc4C3(C)C)=C2NCCNC(=O)Nc2ccc(S(N)(=O)=O)cc2)C(C)(C)c2ccccc21` [Compound 2b], the MIC lay in the range of 4 to 16 µg/mL in the series on S. epidermidis [1] (setting [3]); 16 to 64 µg/mL in the series with E. faecalis (setting [5]); 8 to 128 µg/mL with E. faecalis (span over the four compounds and both strains, read-out: MIC against the E. faecalis and S. aureus strains); 8 to 32 µg/mL against S. aureus (setting [6]). The “MBC S. epidermidis” value with S. epidermidis [1] (Table 3) and with S. epidermidis [1] (setting [4]) was “bacteriostatic” throughout. Further, in the series on E. faecalis, the “MBC E. faecalis” value is reported as “bacteriostatic”. Besides, the Ki at E. coli β is 69.4 nM; on hCA I, 957 nM; on hCA II, 588 nM; on PsCA1, 46.9 nM; at PsCA3, 48.1 nM; on E. coli γ, 93.5 nM. Further, the “selectivity for all assayed bacterial isoforms” value at hCA I (bacterial CA isoforms versus the human off-target hCA I and II) is given as around 10 fold. Moreover, the IC50 in the series on MRC-5 cells was 82.2 µg/mL. Further, the “MBC S. aureus” value against S. aureus is on record as “bacteriostatic”. In addition, the “hemolysis activity, cytotoxicity to human red blood cells” value in the series on human red blood cells is “significant cytotoxicity”. Further, in the series with human red blood cells (hemolysis assay), the “concentration above which cytotoxic to human red blood cells” value was above 75 µg/mL. Also, the “Growth Reduction” value with S. epidermidis [2] came out at 2 log reduction.
